We go through two compounds from patent US20040086479A1, “Novel dendritic polymers, crosslinked gels, and their biomedical uses” (DUKE UNIVERSITY, priority 2001, published 2004).

Molecules are shown by their SMILES. ≈ marks a conversion by molar mass, not a printed value.

The series is described as follows: Water solubility. It is filed as physicochemical.

Regarding `CC[C@@]1(O)C(=O)OCc2c1cc1n(c2=O)Cc2cc3cc(O)ccc3nc2-1` [Example 10HCPT, 10-hydroxycamptothecin], the water solubility was approximately 6 µM (≈ 2.19 µg/mL).
The same measure for `[O-]c1c(-c2ccccc2)cc(-[n+]2c(-c3ccccc3)cc(-c3ccccc3)cc2-c2ccccc2)cc1-c1ccccc1` [Reichardt's dye]: 10^−6 M.
